Experimental data reported in ChEMBL document CHEMBL6078647 (J Med Chem, 2024).
One block for each molecule: values may come before it. The source made the active and inactive calls. The rule behind the calls is not given here. Square brackets hold non-standard residues; d marks the D form. Peptide text beside a SMILES is read from it. * marks the point of attachment. ξ: configuration not given here. X1 = C[N+]1=C(/C=C/C=C2\N(CCCCCC(=O)*)c3ccccc3C2(C)C)C(C)(C)c2ccccc21; PEG2 = NCCOCCOCCC(=O)O; ξD = NC(CC(=O)O)C(=O)O

What was measured:
[1] = biological target: T1, Type-1 angiotensin II receptor (Homo sapiens) (UniProt P30556); experiment: Agonist activity at AT1R (unknown origin) extracted from HEK293 cell membrane coexpressing NLuc and Venus-miniG assessed as miniGq protein recruitment at 1 uM using NanoGlo as substrate preincubated for 30 mins followed by substrate addition for 10 mins by BRET assay; format: functional, cell membranes; settings: filed as agonist, time 40.0 min
T1 sequence (whole entry): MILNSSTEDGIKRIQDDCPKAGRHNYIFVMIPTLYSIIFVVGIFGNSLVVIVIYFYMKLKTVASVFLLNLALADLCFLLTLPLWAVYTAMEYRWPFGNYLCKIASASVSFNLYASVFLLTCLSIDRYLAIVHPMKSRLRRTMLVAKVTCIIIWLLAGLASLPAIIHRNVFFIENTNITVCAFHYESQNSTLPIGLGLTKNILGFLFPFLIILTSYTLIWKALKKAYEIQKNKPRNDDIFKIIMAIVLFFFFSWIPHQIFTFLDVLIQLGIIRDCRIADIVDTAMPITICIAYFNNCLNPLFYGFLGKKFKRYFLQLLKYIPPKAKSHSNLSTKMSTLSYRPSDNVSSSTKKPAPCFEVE

[2] = biological target: T2, Type-2 angiotensin II receptor (Homo sapiens, UniProt P50052); experiment: Binding affinity to human AT2R extracted from HEK293T cell membrane assessed as inhibition constant in presence of [125I][Sar1 Ile8]-angiotensin II by competitive radioligand binding assay; format: cell membranes
T2 sequence (P50052 whole entry): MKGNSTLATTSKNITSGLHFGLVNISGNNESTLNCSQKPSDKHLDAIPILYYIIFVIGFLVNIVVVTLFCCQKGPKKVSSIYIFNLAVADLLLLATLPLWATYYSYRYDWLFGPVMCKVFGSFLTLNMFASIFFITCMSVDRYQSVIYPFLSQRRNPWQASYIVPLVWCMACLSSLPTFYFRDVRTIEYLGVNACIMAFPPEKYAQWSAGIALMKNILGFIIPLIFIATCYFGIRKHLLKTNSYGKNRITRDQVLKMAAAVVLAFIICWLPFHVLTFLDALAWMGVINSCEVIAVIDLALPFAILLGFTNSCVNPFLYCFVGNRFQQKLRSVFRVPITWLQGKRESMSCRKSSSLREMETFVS

[3] = system: Cerebral artery; experiment: Vaso-constriction activity in male wistar rat middle cerebral artery assessed as arterial contraction at 1 uM; format: functional, tissue-based
[4] = biological target: T1, Type-1 angiotensin II receptor (Homo sapiens); experiment: Binding affinity to human GFP-tagged AT1R (unknown origin) extracted from HEK293 cell membrane assessed as colocalization of AT1R in endocytic vesicles at 100 nM incubated for 30 mins by epifluorescence microscopic analysis; format: cell membranes
[5] = Fluorescence property of compound in HEPES buffer assessed as quantum yield; format: physicochemical
[6] = biological target: T3, Type-2 angiotensin II receptor (Homo sapiens) (UniProt P50052); experiment: Binding affinity to human GFP-tagged AT2R extracted from HEK293 cell membrane assessed as colocalization of AT2R in plasma membrane at 100 nM incubated for 30 mins by epifluorescence microscopic analysis; format: cell membranes
T3 sequence (whole entry): T2 sequence (P50052 whole entry)

[7] = biological target: T4, Type-1 angiotensin II receptor (Homo sapiens, UniProt P30556); experiment: Binding affinity to human AT1R extracted from HEK293T cell membrane assessed as inhibition constant in presence of [125I][Sar1 Ile8]-angiotensin II by competitive radioligand binding assay; format: cell membranes
T4 sequence (P30556 whole entry): T1 sequence (whole entry)

[8] = organism: Homo sapiens; experiment: Selectivity index, ratio of Ki for binding affinity to human AT1R extracted from HEK293T cell membrane in presence of [125I][Sar1 Ile8]-angiotensin II by competitive radioligand binding assay to Ki for binding affinity to human AT2R extracted from HEK293T cell membrane in presence of [125I][Sar1 Ile8]-angiotensin II by competitive radioligand binding assay
[9] = system: Cerebral artery; experiment: Vaso-constriction activity in male wistar rat middle cerebral artery assessed as arterial contraction at 10 nM; format: functional, tissue-based
[10] = biological target: T1, Type-1 angiotensin II receptor (Homo sapiens); experiment: Induction of human NLuc-tagged AT1R (unknown origin) internalization in HEK293 cells co expressing venus-MP using NanoGlo as substrate preincubated for 30 mins followed by substrate addition for 10 mins by BRET assay; format: functional
[11] = system: Cerebral artery; experiment: Vaso-constriction activity in male wistar rat middle cerebral artery assessed as arterial contraction at 1 uM in presence of losartan; format: functional, tissue-based
[12] = biological target: T1, Type-1 angiotensin II receptor (Homo sapiens); experiment: Agonist activity at Flag-tagged AT1R (unknown origin) extracted from HEK293T cell membrane co expressing YPET-ARRB1 assessed as beta-arrestin 1 recruitment using NanoGlo as substrate preincubated for 30 mins followed by substrate addition for 10 mins by BRET assay; format: functional, cell membranes; settings: HEK293
[13] = biological target: T1, Type-1 angiotensin II receptor (Homo sapiens); experiment: Agonist activity at Flag-tagged AT1R (unknown origin) extracted from HEK293 cell membrane co expressing YPET-ARRB2 assessed as beta-arrestin 2 recruitment using NanoGlo as substrate preincubated for 30 mins followed by substrate addition for 10 mins by BRET assay; format: functional, cell membranes
[14] = biological target: T3, Type-2 angiotensin II receptor (Homo sapiens); experiment: Binding affinity to GFP-tagged AT2R (unknown origin) extracted from HEK293 cell membrane assessed as increase in median red fluorescence intensity incubated for 15 mins by flow cytometric analysis; format: cell membranes; settings: filed as agonist
[15] = biological target: T3, Type-2 angiotensin II receptor (Homo sapiens); experiment: Binding affinity to human GFP-tagged AT2R extracted from HEK293 cell membrane assessed as colocalization of AT2R in plasma membrane at 30 nM incubated for 30 mins by epifluorescence microscopic analysis; format: cell membranes; settings: filed as agonist
[16] = biological target: T1, Type-1 angiotensin II receptor (Homo sapiens); experiment: Agonist activity at Flag-tagged AT1R (unknown origin) extracted from HEK293 cell membrane assessed as increase in intracellular calcium at >100 nM incubated for 30 mins by microplate reader analysis; format: functional, cell membranes; settings: filed as agonist
[17] = biological target: T4, Type-1 angiotensin II receptor; experiment: Antagonist activity at Flag-tagged AT1R (unknown origin) extracted from HEK293 cell membrane assessed as increase in intracellular calcium incubated for 30 mins by microplate reader analysis; format: functional, cell membranes
[18] = biological target: T3, Type-2 angiotensin II receptor (Homo sapiens); experiment: Binding affinity to GFP-tagged AT2R (unknown origin) extracted from HEK293 cell membrane assessed as fluorescent signal in plasma membrane incubated for 15 mins by confocal microscopic analysis; format: cell membranes
[19] = biological target: T4, Type-1 angiotensin II receptor; experiment: Binding affinity to GFP-tagged AT1R (unknown origin) extracted from HEK293 cell membrane assessed as dissociation constant; format: cell membranes
[20] = biological target: T1, Type-1 angiotensin II receptor (Homo sapiens); experiment: Binding affinity to GFP-tagged AT1R (unknown origin) extracted from HEK293 cell membrane assessed as fluorescent signal in plasma membrane incubated for 15 mins by confocal microscopic analysis; format: cell membranes; settings: filed as antagonist
[21] = biological target: T1, Type-1 angiotensin II receptor (Homo sapiens); experiment: Binding affinity to human GFP-tagged AT1R (unknown origin) extracted from HEK293 cell membrane assessed as colocalization of AT1R in plasma membrane at 30 nM preincubated with losartan at 10 uM followed by compound addition for 30 mins by epifluorescence microscopic analysis; format: cell membranes; settings: filed as antagonist
[22] = organism: Homo sapiens; experiment: Selectivity index, ratio of Ki for binding affinity to human AT2R extracted from HEK293T cell membrane in presence of [125I][Sar1 Ile8]-angiotensin II by competitive radioligand binding assay to Ki for binding affinity to human AT1R extracted from HEK293T cell membrane in presence of [125I][Sar1 Ile8]-angiotensin II by competitive radioligand binding assay
[23] = biological target: T4, Type-1 angiotensin II receptor; experiment: Antagonist activity at Flag-tagged AT1R (unknown origin) extracted from HEK293 cell membrane co expressing YPET-ARRB2 assessed as beta-arrestin 2 recruitment using NanoGlo as substrate preincubated for 30 mins followed by substrate addition for 10 mins by BRET assay; format: functional, cell membranes
[24] = biological target: T1, Type-1 angiotensin II receptor (Homo sapiens); experiment: Binding affinity to Flag-tagged AT1R (unknown origin) extracted from HEK293 cell membrane assessed as increase in median red fluorescence intensity at > 30 nM incubated for 30 mins by flow cytometric analysis; format: cell membranes
[25] = biological target: T4, Type-1 angiotensin II receptor; experiment: Antagonist activity at Flag-tagged AT1R (unknown origin) extracted from HEK293 cell membrane co expressing YPET-ARRB1 assessed as beta-arrestin 1 recruitment using NanoGlo as substrate preincubated for 30 mins followed by substrate addition for 10 mins by BRET assay; format: functional, cell membranes
[26] = biological target: T1, Type-1 angiotensin II receptor (Homo sapiens); experiment: Binding affinity to Flag-tagged AT1R (unknown origin) extracted from HEK293 cell membrane assessed as increase in median red fluorescence intensity at 1 nM incubated for 15 mins by flow cytometric analysis; format: cell membranes; settings: filed as antagonist
[27] = biological target: T1, Type-1 angiotensin II receptor (Homo sapiens); experiment: Induction of human NLuc-tagged AT1R (unknown origin) internalization in HEK293 cells co expressing venus-MP assessed as inhibition of AgII-induced AT1R internalization using NanoGlo as substrate preincubated for 30 mins followed by substrate addition for 10 mins by BRET assay; format: functional

Structure (SMILES): CC[C@H](C)[C@H](NC(=O)[C@H](Cc1ccc(O)cc1)NC(=O)[C@@H](NC(=O)[C@H](CCCNC(=N)N)NC(=O)CN(C)C(=O)CCOCCOCCNC(=O)CCCCCN1/C(=C\C=C\C2=[N+](C)c3ccccc3C2(C)C)C(C)(C)c2ccccc21)C(C)C)C(=O)N[C@@H](Cc1c[nH]cn1)C(=O)N1CCC[C@H]1C(=O)N[C@@H](C)C(=O)O
Activity [1]: Active | Ki ([2]; read-out: Ki): 22.6 nM | Ki ([2]; read-out: pKi (converted)): 16.2 nM | Activity [3]: Active | Activity [4]: inactive | Activity [5]: 0.058 | Activity [6]: inactive | pKi ([7]; hek293t): < 5 | Ki ([7]; read-out: Ki): > 10000 nM | Ratio Ki [8]: > 500

Structure (SMILES): CC[C@H](C)[C@H](NC(=O)[C@H](Cc1ccc(O)cc1)NC(=O)[C@@H](NC(=O)[C@H](CCCNC(=N)N)NC(=O)[C@H](CC(=O)O)NC(=O)CCOCCOCCNC(=O)CCCCCN1/C(=C\C=C\C2=[N+](C)c3ccccc3C2(C)C)C(C)(C)c2ccccc21)C(C)C)C(=O)N[C@@H](Cc1c[nH]cn1)C(=O)N1CCC[C@H]1C(=O)N[C@@H](Cc1ccccc1)C(=O)O
Activity [3]: Active | Activity [9]: Active | Activity [5]: 0.068

Structure (SMILES): CCCCc1nc(Cl)c(C(=O)NCCOCCOCCNC(=O)CCCCCN2/C(=C/C=C/C3=[N+](C)c4ccccc4C3(C)C)C(C)(C)c3ccccc32)n1Cc1ccc(-c2ccccc2-c2nn[nH]n2)cc1.F[B-](F)(F)F
EC50 [17]: Active | Activity [18]: inactive | Kd [19]: ~30 nM | Activity [20]: Active | Ki ([2]; read-out: Ki): 5570 nM | Ki ([2]; read-out: pKi (converted)): 3020 nM | Activity [21]: Active | Ratio Ki [22]: 521 | EC50 [23]: Active | Activity [24]: inactive | EC50 [25]: Active | Activity [26]: Active | Activity [5]: 0.232 | Activity [27]: Dose-dependent-effect | Ki ([7]; read-out: Ki): 10.7 nM

More lines, main results first:

Activity [10]: inactive | Activity [12]: inactive | Activity [5]: 0.064 | Activity [13]: inactive
Structure (SMILES): CC[C@H](C)[C@H](NC(=O)[C@@H](NC(=O)C(CC(=O)O)NC(=O)[C@@H]1CCCN1C(=O)[C@H](Cc1c[nH]cn1)NC(=O)[C@H](Cc1ccccc1)NC(=O)[C@H](Cc1ccc(O)cc1)NC(=O)CCOCCOCCNC(=O)CCCCCN1/C(=C\C=C\C2=[N+](C)c3ccccc3C2(C)C)C(C)(C)c2ccccc21)C(C)C)C(=O)N[C@@H](CCCNC(=N)N)C(=O)O (stereo not given in full) ({X1-PEG2}-YFHP[ξD]VIR-OH)
Activity [11]: Active

Activity [1]: Active | Activity [14]: Active | Ki ([2]; read-out: Ki): 4.23 nM | Ki ([2]; read-out: pKi (converted)): 3.31 nM | Activity [15]: Active | Activity [16]: Active | Activity [5]: 0.076 | Ki ([7]; read-out: Ki): 5430 nM | Ki ([7]; read-out: pKi (converted)): 5130 nM | Ratio Ki [8]: 1280
Structure (SMILES): CC[C@H](C)[C@H](NC(=O)[C@H](Cc1ccc(O)cc1)NC(=O)[C@@H](NC(=O)[C@H](CCCNC(=N)N)NC(=O)CN(C)C(=O)CCCCCN1/C(=C\C=C\C2=[N+](C)c3ccccc3C2(C)C)C(C)(C)c2ccccc21)C(C)C)C(=O)N[C@@H](Cc1c[nH]cn1)C(=O)N1CCC[C@H]1C(=O)N[C@@H](C)C(=O)O
Activity [3]: Active | Activity ([4]; filed as agonist): Active; Scarce Colocalization Of Compound Was Observed
